# Peptide text beside a SMILES is read from it. * marks the point of attachment. Bz = O=C(c1ccccc1)*
# Assays:
# ACE from rabbit lung = settings: HipHisLeu as substrate; cited from earlier work
# ACE [1] = assay: Sulfate and chloride effects on ACE catalysed hydrolysis (general description); format: biochemical
# From the text: An assay for ACE, using HipHisLeu as substrate, is herewith described. The assay is more sensitive than any heretofore disclosed using HipHisLeu as substrate. Maximum sensitivity is achieved by the inclusion of sulfate ions, preferably as sodium sulfate, in the reaction mixture. When 0.1 M NaCl is present in the reaction mixture, sulfate ions are stimulatory from 0.1 M to at least 1.1 M. Maximum stimulation occurs in the range from 0.75 M to 1.1 M Na2 SO4.
# (§1) An even more sensitive assay for ACE activity has been developed using the novel compound ^3 H-benzoylPheAlaPro as substrate. This new substrate can be used to assay ACE in human urine in incubations as short as 15 minutes. The response of this substrate to ions is strikingly different from the response of HipHisLeu. […] This difficulty has been solved by the proper choice of extracting solvent. While a variety of organic solvents may be suitable for the extraction step, it is preferred to employ toluene. Approximately 88% of ^3 H-benzoylPhe enters the toluene phase while only 6% of the unhydrolyzed substrate enters the toluene phase, when toluene and the acidified reaction mixture are in approximately equal volumes at room temperatures.
# (§2) The enzyme is active over a broad pH range with a maximum around pH 8.0, but is at least about 50% active in the range pH 7.0-pH 8.8, for both HipHisLeu and benzoylPheAlaPro. Although the enzyme is active in a variety of buffer systems known in the art, it is preferred for convenience, when using benzoylPheAlaPro as substrate, to conduct the assays in 0.05 M Hepes buffer, pH 8.0 containing 0.15 M sodium chloride. Detailed protocols for carrying out the assay are given in the examples. […] The preferred concentration range is 1×10^-9 M to 7×10^- 5 M.
# [2] = tested on: enzyme isolated from hog lung (ACE); settings: cited from earlier work
# [3] = Extraction from the acidified reaction mixture into organic solvent; format: physicochemical; settings: toluene and acidified reaction mixture in approximately equal volumes, room temperature
# Description: as §1
# Guinea pig urinary ACE = target: T1, Guinea pig urinary ACE (Cavia porcellus, UniProt H0UWL7); assay: Sulfate and chloride effects on ACE catalysed substrate hydrolysis; format: biochemical; settings: 0.05 Hepes, pH 8.0, 0.15M HCl
# T1 sequence (H0UWL7 33-1302): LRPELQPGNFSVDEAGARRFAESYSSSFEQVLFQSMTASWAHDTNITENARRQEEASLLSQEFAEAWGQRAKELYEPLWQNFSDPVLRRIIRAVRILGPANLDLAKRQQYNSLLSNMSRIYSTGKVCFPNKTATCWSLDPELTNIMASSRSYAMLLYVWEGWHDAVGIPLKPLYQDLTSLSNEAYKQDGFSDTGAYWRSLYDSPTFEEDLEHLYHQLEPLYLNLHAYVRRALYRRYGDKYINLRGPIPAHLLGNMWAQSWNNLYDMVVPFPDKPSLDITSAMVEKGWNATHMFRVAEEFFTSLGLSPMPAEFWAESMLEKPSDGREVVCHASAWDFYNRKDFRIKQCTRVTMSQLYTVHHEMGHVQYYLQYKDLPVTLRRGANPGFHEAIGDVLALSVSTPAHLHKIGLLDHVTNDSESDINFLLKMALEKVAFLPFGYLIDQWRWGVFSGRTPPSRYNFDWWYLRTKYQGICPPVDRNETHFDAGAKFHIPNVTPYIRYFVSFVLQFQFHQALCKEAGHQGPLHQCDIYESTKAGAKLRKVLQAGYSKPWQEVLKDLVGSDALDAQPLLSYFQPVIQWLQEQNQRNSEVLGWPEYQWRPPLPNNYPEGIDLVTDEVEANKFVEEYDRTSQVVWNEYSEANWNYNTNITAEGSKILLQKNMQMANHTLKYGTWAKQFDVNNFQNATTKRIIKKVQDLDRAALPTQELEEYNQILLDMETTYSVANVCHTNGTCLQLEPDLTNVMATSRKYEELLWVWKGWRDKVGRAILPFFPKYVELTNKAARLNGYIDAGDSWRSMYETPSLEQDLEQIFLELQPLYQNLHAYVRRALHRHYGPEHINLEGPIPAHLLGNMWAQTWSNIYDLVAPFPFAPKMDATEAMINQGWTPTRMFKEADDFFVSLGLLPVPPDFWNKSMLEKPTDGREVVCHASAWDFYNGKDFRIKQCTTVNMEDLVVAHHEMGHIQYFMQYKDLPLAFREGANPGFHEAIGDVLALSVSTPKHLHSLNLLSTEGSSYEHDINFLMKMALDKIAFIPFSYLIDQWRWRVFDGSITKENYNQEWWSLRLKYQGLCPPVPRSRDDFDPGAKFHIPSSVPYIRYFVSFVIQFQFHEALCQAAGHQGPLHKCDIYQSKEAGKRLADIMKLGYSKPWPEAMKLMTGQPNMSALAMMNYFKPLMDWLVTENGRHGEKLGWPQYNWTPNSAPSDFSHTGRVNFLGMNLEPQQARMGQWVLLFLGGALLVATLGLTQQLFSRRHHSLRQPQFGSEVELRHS
# ACE [4] = target: ACE (Homo sapiens, UniProt P12821); assay: Comparison of sensitivity of ACE radioassays; format: biochemical
# From the text: A comparison of the sensitivity of the disclosed assay methods with each other and with prior art assays may be made by considering assays which depend upon measuring the radioactivity of the remnant reaction product. A prior art assay of this type, using ^3 H-HipGlyGly as substrate has been described (Ryan and Chung, supra). Of the two assays disclosed herein, the sulfate stimulated hydrolysis of ^3 H-HipHisLeu is approximately 20 times more sensitive, and the ^3 H-benzoylPheAlaPro assay is about 10 times more sensitive still. The latter is therefore approximately 200 times more sensitive than the assay using ^3 H-HipGlyGly.
# ACE [5] = assay: pH dependence of ACE activity; format: biochemical
# From the text: as §2
# Guinea pig serum ACE [6] = target: T2, Guinea pig serum ACE (Cavia porcellus, UniProt H0UWL7); assay: Kinetics of benzoyl-Phe-Ala-Pro hydrolysis; settings: for V (reaction velocity): 0.05 M Hepes, pH 8.0, 0.15 M NaCl, 37° C., serum 1:1000
# T2 sequence (H0UWL7 33-1234): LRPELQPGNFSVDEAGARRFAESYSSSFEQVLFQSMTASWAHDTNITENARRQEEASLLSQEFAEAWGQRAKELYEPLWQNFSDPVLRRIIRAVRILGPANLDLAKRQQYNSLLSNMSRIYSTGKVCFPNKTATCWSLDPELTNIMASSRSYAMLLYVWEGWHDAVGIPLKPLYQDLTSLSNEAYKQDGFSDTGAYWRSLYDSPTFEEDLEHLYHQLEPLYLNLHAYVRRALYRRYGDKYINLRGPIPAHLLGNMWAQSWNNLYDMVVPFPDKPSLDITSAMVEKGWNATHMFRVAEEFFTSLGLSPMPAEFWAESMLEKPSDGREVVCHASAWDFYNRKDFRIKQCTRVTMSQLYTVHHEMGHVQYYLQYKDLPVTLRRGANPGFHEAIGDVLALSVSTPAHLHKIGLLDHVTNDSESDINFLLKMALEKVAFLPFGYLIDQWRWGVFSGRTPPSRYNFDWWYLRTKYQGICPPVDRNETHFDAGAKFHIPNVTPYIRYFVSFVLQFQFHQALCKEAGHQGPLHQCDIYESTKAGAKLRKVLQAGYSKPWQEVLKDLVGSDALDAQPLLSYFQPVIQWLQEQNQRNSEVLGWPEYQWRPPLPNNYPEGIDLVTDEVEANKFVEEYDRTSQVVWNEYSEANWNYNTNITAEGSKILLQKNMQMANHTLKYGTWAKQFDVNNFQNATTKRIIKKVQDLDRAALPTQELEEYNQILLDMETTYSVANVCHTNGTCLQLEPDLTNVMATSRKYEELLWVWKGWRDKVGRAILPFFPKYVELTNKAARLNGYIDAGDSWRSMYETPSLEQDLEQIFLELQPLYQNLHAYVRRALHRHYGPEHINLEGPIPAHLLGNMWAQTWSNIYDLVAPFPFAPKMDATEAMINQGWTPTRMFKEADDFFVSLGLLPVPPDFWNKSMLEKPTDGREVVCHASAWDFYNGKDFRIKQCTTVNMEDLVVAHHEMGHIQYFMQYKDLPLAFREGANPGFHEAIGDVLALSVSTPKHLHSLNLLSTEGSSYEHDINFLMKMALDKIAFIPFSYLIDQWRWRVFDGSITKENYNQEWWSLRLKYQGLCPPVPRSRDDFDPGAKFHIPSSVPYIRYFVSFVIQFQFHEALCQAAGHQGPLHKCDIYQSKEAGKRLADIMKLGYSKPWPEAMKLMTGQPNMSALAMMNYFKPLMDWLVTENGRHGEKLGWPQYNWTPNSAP
# Description: Kinetics of Benzoyl-Phe-Ala-Pro Hydrolysis
# The apparent Km for the ACE catalyzed hydrolysis of benzoyl-Phe-Ala-Pro was measured in the following manner. […] Guinea pig serum was diluted 1:1000 to provide the enzyme. A mixture of 50 μl diluted serum and 50 μl of substrate, diluted in the reaction buffer to provide the appropriate substrate concentration for each experiment, was incubated at 37° C. for 10 minutes. At the end of the incubation, 1.0 ml of 0.1 M HCl was added to stop the reaction. The reaction mixture was then extracted with 1.0 ml toluene, and a 0.5 ml aliquot of the toluene phase was counted in a scintillation counter.
# Guinea pig serum ACE [7] = target: T2, Guinea pig serum ACE; assay: Kinetics of (sulfate-stimulated) HipHisLeu hydrolysis; format: biochemical; settings: 0.05 M Hepes, pH 8.0, 0.1 M NaCl, 0.75 M Na2 SO4; Lineweaver and Burke plot
# Description: Kinetics of Sulfate-Stimulated HipHisLeu Hydrolysis
# In each assay, 50 μl of Guinea pig serum diluted 1-20 (v/v) in the reaction buffer was mixed with 50 μl of buffer containing sufficient ^3 H-HipHisLeu to provide approximately 100,000 cpm total, together with sufficient unlabeled HipHisLeu to produce the desired substrate concentrations, as indicated in Table 2. […] The reaction mixture was then extracted with 1 ml ethyl acetate. 500 μl of the ethyl acetate fraction was sampled and counted in a scintillation counter.
# [8] = sulfate ion 0.6 M, 0.1 M chloride, pH 8
# Sequence of ACE (Homo sapiens, UniProt P12821) (P12821 30-1306, species assumed): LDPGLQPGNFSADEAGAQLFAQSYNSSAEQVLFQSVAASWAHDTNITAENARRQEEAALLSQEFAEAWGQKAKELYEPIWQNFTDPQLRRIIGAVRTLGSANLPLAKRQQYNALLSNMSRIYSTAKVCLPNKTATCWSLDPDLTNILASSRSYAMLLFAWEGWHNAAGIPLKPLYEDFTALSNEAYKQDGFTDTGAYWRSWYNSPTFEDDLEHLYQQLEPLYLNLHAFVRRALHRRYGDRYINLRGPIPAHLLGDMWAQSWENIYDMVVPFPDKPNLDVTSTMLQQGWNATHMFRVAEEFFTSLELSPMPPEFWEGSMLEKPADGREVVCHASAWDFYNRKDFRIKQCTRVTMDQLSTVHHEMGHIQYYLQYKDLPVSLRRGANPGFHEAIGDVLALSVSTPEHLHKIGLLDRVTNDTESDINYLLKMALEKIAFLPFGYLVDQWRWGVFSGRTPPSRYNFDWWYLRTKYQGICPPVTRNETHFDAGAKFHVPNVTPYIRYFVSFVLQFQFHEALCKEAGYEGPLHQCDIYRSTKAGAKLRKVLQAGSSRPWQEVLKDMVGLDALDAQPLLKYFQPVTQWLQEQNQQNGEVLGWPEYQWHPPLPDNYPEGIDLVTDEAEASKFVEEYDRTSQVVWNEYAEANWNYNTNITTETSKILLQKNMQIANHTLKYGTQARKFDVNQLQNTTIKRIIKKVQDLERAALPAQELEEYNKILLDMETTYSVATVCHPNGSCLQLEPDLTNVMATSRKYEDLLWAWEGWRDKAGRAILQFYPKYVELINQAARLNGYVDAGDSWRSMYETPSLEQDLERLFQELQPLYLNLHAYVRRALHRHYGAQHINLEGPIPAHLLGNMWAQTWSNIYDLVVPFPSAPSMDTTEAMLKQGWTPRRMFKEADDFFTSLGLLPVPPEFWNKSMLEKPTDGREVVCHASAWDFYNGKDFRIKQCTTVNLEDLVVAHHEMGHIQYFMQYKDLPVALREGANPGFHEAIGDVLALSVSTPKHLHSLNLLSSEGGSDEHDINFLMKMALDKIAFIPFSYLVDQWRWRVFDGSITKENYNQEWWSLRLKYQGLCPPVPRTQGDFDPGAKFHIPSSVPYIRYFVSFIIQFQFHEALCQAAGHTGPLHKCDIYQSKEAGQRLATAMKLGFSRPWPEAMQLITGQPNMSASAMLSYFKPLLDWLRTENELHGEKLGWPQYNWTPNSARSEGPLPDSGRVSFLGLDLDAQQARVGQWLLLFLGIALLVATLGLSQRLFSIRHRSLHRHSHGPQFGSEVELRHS
compound,measurement,setting,value
[Cl-].[Cl-].[Mg+2] [MgCl2],ability to meet the chloride requirement,ACE from rabbit lung,could be met
O=C(O)CNC(=O)CNC(=O)CNC(=O)c1ccccc1 [HipGlyGly] (Bz-Gly-Gly-Gly-OH),dependence of hydrolysis on added chloride,ACE [1]; sulfate present,remains dependent upon the presence of added chloride for activity
same,hydrolysis in the absence of NaCl,[2]; Na2 SO4 0.001 M to 0.6 M,no hydrolysis
same,decrease of Km,[2]; [8],about 15%
same,increase of Vmax,[2]; [8],about 5 fold
"O=S(=O)([O-])[O-].[Na+].[Na+] [Na2 SO4, sodium sulfate]",reaction rate vs. buffer containing 0.1 M NaCl and lacking Na2 SO4,"ACE [1]; 0.9 M to 1.2 M Na2 SO4, no added NaCl, 0.05 M Hepes, pH 8.0, HipHisLeu",faster
same,stimulation by sodium sulfate,ACE [1]; ^3 H-benzoylPheAlaPro as substrate,not stimulatory
same,ability to meet the chloride requirement,ACE from rabbit lung,not
[3H]c1ccc(C(=O)N[C@@H](Cc2ccccc2)C(=O)O)cc1 [^3 H-benzoylPhe],fraction entering the toluene phase,[3],Approximately 88%
"C[C@H](NC(=O)[C@H](Cc1ccccc1)NC(=O)c1ccccc1)C(=O)N1CCC[C@H]1C(=O)O [benzoylPheAlaPro, benzoyl-Phe-Ala-Pro] (Bz-Phe-Ala-Pro-OH)","Reaction Velocity, Per Cent of Substrate Hydrolyzed in 10 minutes",Guinea pig urinary ACE; Na2 SO4 0 M,4.4 Per Cent
same,"Reaction Velocity, Per Cent of Substrate Hydrolyzed in 10 minutes",Guinea pig urinary ACE; Na2 SO4 0.1 M,5.0 Per Cent
same,"Reaction Velocity, Per Cent of Substrate Hydrolyzed in 10 minutes",Guinea pig urinary ACE; Na2 SO4 0.2 M,4.45 Per Cent
same,"Reaction Velocity, Per Cent of Substrate Hydrolyzed in 10 minutes",Guinea pig urinary ACE; Na2 SO4 0.3 M,4.85 Per Cent
same,"Reaction Velocity, Per Cent of Substrate Hydrolyzed in 10 minutes",Guinea pig urinary ACE; Na2 SO4 0.5 M,5.6 Per Cent
same,sensitivity relative to the sulfate-stimulated HipHisLeu assay,ACE [4],ten to twenty
same,pH of maximum activity,ACE [5],~8.0 pH
same,activity of enzyme (relative to maximum),ACE [5]; range pH 7.0-pH 8.8,at least 50%
same,1/V,Guinea pig serum ACE [6]; BenzPheAlaPro 1.0 μM,1.50 pmole^-1 · min .multi
same,V (reaction velocity),Guinea pig serum ACE [6]; BenzPheAlaPro 1.0 μM,0.67 pmol/min/mL
same,1/V,Guinea pig serum ACE [6]; BenzPheAlaPro 5.0 μM,0.48 pmole^-1 · min .multi
same,V (reaction velocity),Guinea pig serum ACE [6]; BenzPheAlaPro 5.0 μM,2.08 pmol/min/mL
same,1/V,Guinea pig serum ACE [6]; BenzPheAlaPro 10.0 μM,0.24 pmole^-1 · min .multi
same,V (reaction velocity),Guinea pig serum ACE [6]; BenzPheAlaPro 10.0 μM,4.17 pmol/min/mL
same,1/V,Guinea pig serum ACE [6]; BenzPheAlaPro 66.7 μM,0.11 pmole^-1 · min .multi
same,V (reaction velocity),Guinea pig serum ACE [6]; BenzPheAlaPro 66.7 μM,9.09 pmol/min/mL
same,sensitivity of Km to the presence of sulfate,Guinea pig serum ACE [6]; sulfate present,relatively insensitive to the presence of sulfate
"[Cl-].[Na+] [NaCl, sodium chloride]",effect of NaCl on reaction velocity of ^3 H-benzoylPheAlaPro,ACE [1]; 0.01 M added NaCl,increases reaction velocity
same,increase of apparent reaction velocity of ^3 H-benzoylPheAlaPro,ACE [1]; 0.05 M added sodium chloride,approximately 3 fold
same,effect on ACE catalyzed hydrolysis of HipHisLeu,ACE [1]; NaCl 0.75 to 1.1 M,seriously inhibits
same,further increase of reaction velocity of ^3 H-benzoylPheAlaPro,"ACE [1]; additional sodium chloride, up to 0.5 M",little further increase
^3 H-HipHisLeu,Km,Guinea pig serum ACE [7],177 µM
same,sensitivity relative to the assay using ^3 H-HipGlyGly,"ACE [4]; radioactivity of remnant product, HipHisLeu assay sulfate stimulated",approximately 20 times

# Reference: US4260682A, “High sensitivity assays for angiotensin converting enzyme” (priority 1979, dated 1981)
